From US20020198219A1, “2-pyridinamine compositions and related methods” (priority 2000, published 2002)

System: differentiated P19 neurons
Test: Drug screening using differentiated P19 cell assay (neuroprotection against glutamate/glycine)
Assay type: cell-based, murine
Conditions: for IC50: dose response 0.005-3 μM, 3 mM glutamate + 1 mM glycine, >1 = no maximum within highest dose (3 μM); for % neuroprotection (cell survival relative to control): screened at 1 micromolar, percentage of control cells surviving after 24 hours
Procedure: Commercially available chemical libraries (BioFocus PLC, UK) were screened using the methods described herein. The stock concentration of the compounds was about 400 μM in DMSO. The concentration of compounds used in the primary screen was 1 μM. […] Columns 4-11 received compounds at the following final concentrations (μM): 3, 1.2, 0.48, 0.192, 0.077, 0.031, 0.012 and 0.005. Each row contained a different compound for confirmation. Only rows B-G received compounds, and rows A and H remained untreated. Data are expressed as % neuroprotection=((compound-glutamate average)/(U0126-glutamate average)×100).
Only the 2-pyridinamines are the subject of this invention, although limited data for 4-pyrimidinamines are presented as well. “% Inh” indicates the percentage of control cells surviving after 24 hours, and represents the neuroprotective effect of the compounds screened at 1 micromolar concentration. IC50 relate to data from dose response experiments. […] ND refers to compounds not tested in dose-response experiments. […]

IC50 (Mus musculus, Neuron) [nM]	IC50 [nM]	SMILES	% neuroprotection (cell survival relative to control) [%]
50	–	COc1cc(Nc2cccc(-c3ccc4c(c3)OCO4)n2)cc(OC)c1OC [Cmpd 120, 2-pyridinamine, 6-(1,3-benzodioxol-5-yl)-N-(3,4,5-trimethoxyphenyl)-]	97
240	–	COc1ccc(Nc2cccc(-c3ccco3)n2)cc1 [Cmpd 131]	95
–	–	COc1ccccc1-c1ccc(Nc2cc(OC)c(OC)c(OC)c2)nc1 [Cmpd 71]	77
–	–	COc1ccc(Nc2cccc(-c3ccc4ccccc4c3)n2)cc1 [Cmpd 97]	71
–	330	CCn1c2ccccc2c2cc(Nc3cccc(-c4cccc(N)c4)n3)ccc21 [Cmpd 99]	105
–	> 1000	COc1ccc(Nc2ccc(-c3ccc(C)c(C)c3)cn2)cc1 [Cmpd 86]	80
80	–	COc1cc(Nc2cccc(-c3ccc(C)c(C)c3)n2)cc(OC)c1OC [Cmpd 126, 2-pyridinamine, 6-(3,4-dimethylphenyl)-N-(3,4,5-trimethoxyphenyl)-]	90
–	–	CCn1c2ccccc2c2cc(Nc3cccc(-c4ccc5c(c4)OCO5)n3)ccc21 [Cmpd 139]	72
–	–	COc1ccc(Nc2cccc(-c3ccc(N(C)C)cc3)n2)cc1 [Cmpd 98]	71
–	140	COc1cc(Nc2cccc(-c3cc4ccccc4o3)n2)cc(OC)c1OC [Cmpd 110]	91
–	–	CCCCCOc1ccc(Nc2ccc(-c3cccnc3)cn2)cc1 [Cmpd 37]	84
–	> 1000	Clc1cccc(-c2ccc(Nc3ccc(N4CCOCC4)cc3)nc2)c1Cl [Cmpd 26]	107
–	> 1000	Fc1ccc(-c2ccc(Nc3ccc(N4CCOCC4)cc3)nc2)cc1Cl [Cmpd 31]	83
230	–	COc1ccc(-c2cccc(Nc3cc(OC)c(OC)c(OC)c3)n2)cc1OC [Cmpd 124, 2-pyridinamine, 6-(3,4-dimethoxyphenyl)-N-(3,4,5-trimethoxyphenyl)-]	86
–	–	CN(C)c1cccc(-c2ccc(Nc3ccc4c(c3)OCCO4)nc2)c1 [Cmpd 76]	95
–	560	CCCCCOc1ccc(Nc2ccc(-c3ccc(O)cc3)cn2)cc1 [Cmpd 9]	84
–	510	COc1ccc(Nc2ccc(-c3ccc(OC(F)(F)F)cc3)cn2)cc1 [Cmpd 3]	94
–	> 1000	CCn1c2ccccc2c2cc(Nc3cccc(-c4ccco4)n3)ccc21 [Cmpd 132]	105
140	–	CCOc1cccc(-c2cccc(Nc3cc(OC)c(OC)c(OC)c3)n2)c1 [Cmpd 114, 2-pyridinamine, 6-(3-ethoxyphenyl)-N-(3,4,5-trimethoxyphenyl)-]	96

IC50 (Mus musculus, Neuron) [nM]	IC50 [nM]	SMILES	% neuroprotection (cell survival relative to control) [%]
–	380	FC(F)(F)Oc1ccc(-c2ccc(Nc3ccc4c(c3)OCCO4)nc2)cc1 [Cmpd 4]	86
–	> 1000	FC(F)(F)Oc1cccc(-c2ccc(Nc3ccc(N4CCOCC4)cc3)nc2)c1 [Cmpd 33]	89
–	–	COc1ccc(Nc2ccc(C=Cc3ccccc3)cn2)c(C)c1 [Cmpd 90]	73
–	490	COc1cc(Nc2ccc(-c3ccc(C)c(C)c3)cn2)cc(OC)c1OC [Cmpd 84]	85
230	–	CCCCCOc1ccc(Nc2ccc(-c3ccc(CCC(=O)O)cc3)cn2)cc1 [Cmpd 10, benzenepropanoic acid, 4-[6-[[4-(pentyloxy)phenyl]amino]-3-pyridinyl]-]	105
650	–	COc1ccc(Nc2cccc(-c3ccccc3)n2)cc1 [Cmpd 123]	90
–	> 1000	c1ccc(Oc2ccccc2-c2ccc(Nc3ccc(N4CCOCC4)cc3)nc2)cc1 [Cmpd 28]	83
–	1540	COc1ccc(Nc2cccc(-c3ccc(C)c(C)c3)n2)cc1 [Cmpd 128]	84
–	284	c1cc2c(cc1Nc1ccc(-c3ccc(N4CCOCC4)cc3)cn1)OCCO2 [Cmpd 5]	80
–	–	COc1ccc(Nc2cccc(-c3cccc(N)c3)n2)cc1 [Cmpd 100]	79
–	560	COc1ccc(Nc2ccc(-c3ccc(O)cc3)cn2)cc1 [Cmpd 2]	94
–	–	Oc1ccc(-c2ccc(Nc3ccc4c(c3)OCCO4)nc2)cc1 [Cmpd 70]	93
–	460	COc1ccc(-c2ccc(Nc3ccc(N4CCOCC4)cc3)nc2)cc1OC [Cmpd 79]	110
–	–	COc1cc(Nc2cccc(-c3ccc(Cl)cc3)n2)cc(OC)c1OC [Cmpd 141]	76
260	–	CCCCCOc1ccc(Nc2ccc(-c3ccc4c(c3)OCO4)cn2)cc1 [Cmpd 13, 2-pyridinamine, 5-(1,3-benzodioxol-5-yl)-N-[4-(pentyloxy)phenyl]-]	98
–	900	COc1cc(Nc2cccc(-c3cc(OC)c(OC)c(OC)c3)n2)cc(OC)c1OC [Cmpd 112]	90
–	–	COc1cc(Nc2ccc(-c3cccc(N(C)C)c3)cn2)cc(OC)c1OC [Cmpd 74]	95
220	–	CCCCCOc1ccc(Nc2ccc(-c3ccc(N4CCOCC4)cc3)cn2)cc1 [Cmpd 6, 2-pyridinamine, 5-[4-(4-morpholinyl)phenyl]-N-[4-(pentyloxy)phenyl]-]	83
200	–	COc1ccc(Nc2ccc(-c3ccc(N(C)C)cc3)cn2)cc1 [Cmpd 8, 2-pyridinamine, 5-[4-(dimethylamino)phenyl]-N-(4-methoxyphenyl)-]	83

IC50 (Mus musculus, Neuron) [nM]	IC50 [nM]	SMILES	% neuroprotection (cell survival relative to control) [%]
7	–	COc1cc(Nc2cccc(-c3ccccc3)n2)cc(OC)c1OC [Cmpd 122, 2-pyridinamine, 6-phenyl-N-(3,4,5-trimethoxyphenyl)-]	84
210	–	FC(F)(F)c1cc(-c2ccc(Nc3ccc(N4CCOCC4)cc3)nc2)cc(C(F)(F)F)c1 [Cmpd 21, 2-pyridinamine, 5-[3,5-bis(trifluoromethyl)phenyl]-N-[4-(4-morpholinyl)phenyl]-]	95
230	–	C(=C\c1ccc(Nc2ccc3c(c2)OCCO3)nc1)/c1ccccc1 [Cmpd 88, 2-pyridinamine, N-(2,3-dihydro-1,4-benzodioxin-6-yl)-5-[(E)-2-phenylethenyl]-]	85
–	–	COc1ncc(-c2cccc(Nc3cc(OC)c(OC)c(OC)c3)n2)c(OC)n1 [Cmpd 107]	71
190	–	COc1cc(C)c(Nc2cccc(-c3ccc(C)c(C)c3)n2)cc1OC [Cmpd 127, 2-pyridinamine, N-(4,5-dimethoxy-2-methylphenyl)-6-(3,4-dimethylphenyl)]	86
–	320	COc1cc(Nc2cccc(-c3ccc(Cl)c(Cl)c3)n2)cc(OC)c1OC [Cmpd 146]	99
–	400	COc1ccc(Nc2cccc(-c3cccc(N(C)C)c3)n2)cc1 [Cmpd 105]	98
–	650	COc1cc(Nc2cccc(-c3ccc(-c4ccccc4)cc3)n2)cc(OC)c1OC [Cmpd 121]	96
–	> 1000	COc1ccccc1-c1ccc(Nc2ccc(N3CCOCC3)cc2)nc1 [Cmpd 32]	100
–	> 1000	CCCCCOc1ccc(Nc2ccc(-c3cccc(N)c3)cn2)cc1 [Cmpd 36]	98
–	–	CCCCCOc1ccc(Nc2ccc(-c3cccc(N(C)C)c3)cn2)cc1 [Cmpd 75]	88
–	280	COc1ccc(Nc2cccc(C=Cc3ccccc3)n2)c(C)c1OC [Cmpd 145]	96
–	–	COc1cc(Nc2cccc(-c3ccc(O)cc3)n2)cc(OC)c1OC [Cmpd 117]	78
–	870	COc1ccccc1-c1ccc(Nc2ccc3c(c2)OCCO3)nc1 [Cmpd 11]	83
–	470	c1ccc(-c2ccc(-c3ccc(Nc4ccc(N5CCOCC5)cc4)nc3)cc2)cc1 [Cmpd 78]	109
–	> 1000	Clc1ccc(-c2ccc(Nc3ccc(N4CCOCC4)cc3)nc2)cc1 [Cmpd 29]	82
–	–	CC(C)(C)OC(=O)N1CCN(c2ccc(-c3ccc(Nc4ccc5c(c4)OCCO5)nc3)cc2)CC1 [Cmpd 69]	99
–	540	COc1cc(Nc2cccc(-c3cccc(N(C)C)c3)n2)cc(OC)c1OC [Cmpd 113]	91
